Data set [1] has as its target Human immunodeficiency virus type 1 protease (Human immunodeficiency virus 1, UniProt Q72874). Put plainly: The compound was evaluated for inhibition of HIV protease.
Data set [2] deals with MT2. As to the kind of experiment: Compound was evaluated for accumulation of viral RNA transcripts three days after infection of MT-2 cells with HIV-1 RF. Conditions: Homo sapiens, MT2, 72 h. The class given is functional.
Data set [3] in a line: Ratio of -logKi with respect to inhibition was evaluated. The class given is functional.
Data set [4] is described as follows: Percentage Bioavailability was evaluated. The class given is ADME, organism-based. Conditions: in vivo; read-out: Bioavailabiility.
Data set [5] is described as follows: Maximum concentration of compound in dog was evaluated. The class given is ADME, organism-based, Canis lupus familiaris. The following applies: in vivo.
A short description of data set [6]: Maximum concentration of compound in rat was evaluated. The following applies: in vivo. The class given is ADME, organism-based.
Data set [7] is described as follows: Half life period was evaluated. The class given is ADME.

`CCNc1[nH]nc2ccc(CN3C(=O)N(Cc4ccc5n[nH]c(NCC)c5c4)[C@H](Cc4ccccc4)[C@H](O)[C@@H](O)[C@H]3Cc3ccccc3)cc12` gave a Ki in data set [1] of 0.041 nM. In data set [2], the IC90 was 65 nM. Also, the Ratio in data set [3] worked out at 3.2.
The matching figures for `CNc1[nH]nc2ccc(CN3C(=O)N(Cc4ccc5n[nH]c(NC)c5c4)[C@H](Cc4ccccc4)[C@H](O)[C@@H](O)[C@H]3Cc3ccccc3)cc12`: 0.018 nM, 279 nM and 4.2.
Molecule `Nc1n[nH]c2ccc(CN3C(=O)N(Cc4ccc5[nH]nc(N)c5c4)[C@H](Cc4ccccc4)[C@H](O)[C@@H](O)[C@H]3Cc3ccccc3)cc12` displayed a Ki in data set [1] of less than 0.01 nM.
`O=C1N(Cc2ccc3[nH]ncc3c2)[C@H](Cc2ccccc2)[C@H](O)[C@@H](O)[C@@H](Cc2ccccc2)N1Cc1ccc2[nH]ncc2c1`: the bioavailability in data set [4] stood at 13%. Also, the highest concentration (Cmax) in data set [5] was determined as 1000 nM; in data set [6] it was 30 nM. The molecule also showed a half-life in data set [7] of 2 h. In addition, it took 8 nM to reach the 90% level in data set [2] (IC90).
As to `O=C1N(Cc2ccc3[nH]nc(N4CCCC4)c3c2)[C@H](Cc2ccccc2)[C@H](O)[C@@H](O)[C@@H](Cc2ccccc2)N1Cc1ccc2[nH]nc(N3CCCC3)c2c1`, the affinity in data set [1] corresponds to a Ki of 1.3 nM. The molecule further had an IC90 in data set [2] of 120 nM. Besides, in data set [3], the Ratio amounted to 2.
Taken in the same sequence, the figures for `CCCNc1[nH]nc2ccc(CN3C(=O)N(Cc4ccc5n[nH]c(NCCC)c5c4)[C@H](Cc4ccccc4)[C@H](O)[C@@H](O)[C@H]3Cc3ccccc3)cc12` were 0.23 nM, 40 nM and 2.2.
Take `O=C1N(Cc2ccc3[nH]nc(NCC4CC4)c3c2)[C@H](Cc2ccccc2)[C@H](O)[C@@H](O)[C@@H](Cc2ccccc2)N1Cc1ccc2[nH]nc(NCC3CC3)c2c1`: in data set [1], the inhibitory constant (Ki) is 0.34 nM. The molecule further showed an IC90 in data set [2] of 38 nM. Moreover, the Ratio in data set [3] amounted to 2.1.
`O=C1N(Cc2ccc3[nH]c(O)nc3c2)[C@H](Cc2ccccc2)[C@H](O)[C@@H](O)[C@@H](Cc2ccccc2)N1Cc1ccc2[nH]c(O)nc2c1`: the Ki in data set [1] was less than 0.01 nM. Moreover, the IC90 in data set [2] was greater than 65000 nM.
The molecule `CC(C)Nc1[nH]nc2ccc(CN3C(=O)N(Cc4ccc5n[nH]c(NC(C)C)c5c4)[C@H](Cc4ccccc4)[C@H](O)[C@@H](O)[C@H]3Cc3ccccc3)cc12` showed a Ki in data set [1] of 0.09 nM. For the same molecule, in data set [2], the IC90 is 24 nM. Moreover, the Ratio in data set [3] amounted to 2.4.
`Nc1[nH]nc2ccc(CN3C(=O)N(Cc4ccc5n[nH]c(N)c5c4)[C@H](Cc4ccccc4)[C@H](O)[C@@H](O)[C@H]3Cc3ccccc3)cc12` gave an IC90 in data set [2] of 2760 nM. Besides, the Ratio in data set [3] came out at 5.4.

The values above are taken from ChEMBL document CHEMBL1131658, “Potent cyclic urea HIV protease inhibitors with 3-aminoindazole P2/P2' groups” (Bioorg Med Chem Lett, 1998).
